{
  "source": "patent US11707447B1",
  "key": {"5-HT2A receptor [1]": {"target": "T1, 5-HT2A receptor (Mus musculus, UniProt P35363)", "T1 construct": "tissue Charles River; host or cells: whole animal, C57BL/6-Elite mice (brain neurons)", "T1 sequence (P35363 whole entry)": "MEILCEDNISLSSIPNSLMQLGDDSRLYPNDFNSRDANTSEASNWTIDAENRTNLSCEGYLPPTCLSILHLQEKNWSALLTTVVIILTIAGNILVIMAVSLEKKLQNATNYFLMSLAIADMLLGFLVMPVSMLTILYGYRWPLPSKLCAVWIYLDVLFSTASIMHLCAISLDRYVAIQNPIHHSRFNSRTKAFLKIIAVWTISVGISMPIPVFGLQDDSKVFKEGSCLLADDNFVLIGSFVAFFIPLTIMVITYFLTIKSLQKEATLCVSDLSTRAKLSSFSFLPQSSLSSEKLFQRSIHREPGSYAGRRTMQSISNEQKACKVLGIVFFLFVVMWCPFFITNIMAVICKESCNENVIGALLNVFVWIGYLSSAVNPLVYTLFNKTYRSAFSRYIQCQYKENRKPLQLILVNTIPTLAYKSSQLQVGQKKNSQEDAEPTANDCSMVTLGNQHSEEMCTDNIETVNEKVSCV", "experiment": "Drug-induced Head Twitch Response (HTR) in mice", "assay_type": "in vivo", "details": "1 mg/kg i.p., 15-to-30-minute window after dosing, vs vehicle"}, "[2]": {"experiment": "Mouse pharmacokinetic (PK) evaluation of drug metabolism to psilocin", "details": "mean ± SD"}, "in vitro": {"experiment": "in vitro", "assay_type": "in vitro ADME, human", "from_the_text": "(§1) A fundamental evaluation in drug development is the assessment of absorption, distribution, metabolism, excretion, and pharmacokinetics (ADME/PK) (Eddershaw et al., 2000, Drug Discovery Today 5(9): 409-414). […] Drug stability upon exposure to human liver microsomes and liver S9 cellular fractions is a common in vitro assay to approximate in vivo, liver-based drug metabolism (Richardson et al., 2016 Drug Metabolism Letters 10:83-90). First-pass metabolism is also often approximated in vitro using intestinal microsome and cellular S9 fractions (Hatley et al., 2017, Biopharmaceuticals & Drug Disposition, 38(2):155-160). Further, it is well known that human serum, and particularly circulating serum esterases can contribute to systemic drug metabolism (Williams, F M 1987, Pharmacology and Therapeutics, 34:99-109). Many pharmacological agents are classified as prodrugs, as they undergo metabolic transformation in vivo upon administration to release the active drug compound into the systemic compartment (Zawilska J B, et al. 2013, Pharmacological Reports, 65:1-14). Psilocybin, a serotonergic psychedelic agent, is well known prodrug that is metabolized into the psychoactive product, psilocin (Dinis-Oliveira, R J 2017, Drug Metabolism Reviews, 49(1):84-91). To evaluate the capacity of test molecules to similarly serve as prodrugs of psilocin, time-dependent, metabolic stability assays using human AB serum, human intestinal microsomes (HIM), human intestinal S9 fractions (HIS9), human liver microsomes (HLM), human liver S9 fractions (HLS9), human alkaline phosphatase, and porcine esterase were performed. […] Liquid chromatography coupled mass spectrometry (LC-MS) was employed to track the conversion of the test molecules into psilocin. All intestinal and liver fractions and NADPH RapidStart reagent was purchased from Sekisui/XenoTech. Human AB serum was purchased from Sigma. For intestine and liver metabolism assays, 2.5 μM candidate compounds were incubated in 400 μg/ml of each cellular fraction (HLM, HLS9, HIM, or HIS9) in 50 mM potassium phosphate buffer (pH 7.4) containing 3 mM MgCl2 and 1 mM EDTA supplemented with NADPH RapidStart at 37° C. Samples were taken at the start of the assay, and at every 20 minutes for 2 hours. Time-point samples were precipitated with 1:1 volume of acetonitrile to quench the reaction before centrifugation at 4000×g for 20 minutes. Supernatants were analyzed for the presence of candidate prodrugs (parent molecule) and psilocin (the predicted metabolite) using Orbitrap LC-MS (Thermo Scientific) using previously described methods (Menéndez-Perdomo et al., 2021, J. Mass Spectrom., 56: e4683). The serum assays were carried out in 10% human AB serum in 50 mM potassium phosphate buffer (pH 7.4) containing 3 mM MgCl2 and 1 mM EDTA. Bovine alkaline phosphatase assays were carried out using one unit of purified enzyme in 50 mM potassium phosphate buffer (pH 7.4) containing 3 mM MgCl2 and 1 mM EDTA. Porcine esterase assays were carried out using one unit of purified enzyme in 50 mM potassium phosphate buffer (pH 7.4) containing 3 mM MgCl2 and 1 mM EDTA. Assay concentrations (μM) of both parent ‘prodrug’ molecule and psilocin metabolite, as quantified through LC-MS using routine standard curve procedures, were plotted as functions of assay time (minutes). The metabolism rate (T1/2) was determined from the metabolism curve plot using the one phase decay feature of GraphPad PRISM software (Version 9.2.0). The quantity of parent prodrug at time zero was set as 100%.\nPositive controls were first tested to ensure that assays were functioning properly."}, "[3]": {"experiment": "In vitro metabolic stability / psilocin release, human AB serum", "assay_type": "in vitro ADME", "details": "AB serum", "from_the_text": "as §1, with “For intestine and liver metabolism assays, 2.5 μM candidate compounds were incubated in 400 μg/ml of each cellular fraction (HLM, HLS9, HIM, or HIS9) in 50 mM potassium phosphate buffer (pH 7.4) containing 3 mM MgCl2 and 1 mM EDTA supplemented with NADPH RapidStart at 37° C. Samples were taken at the start of the assay, and at every 20 minutes for 2 hours. Time-point samples were precipitated with 1:1 volume of acetonitrile to quench the reaction before centrifugation at 4000×g for 20 minutes.” left out, “The serum assays were carried out in 10% human AB serum in 50 mM potassium phosphate buffer (pH 7.4) containing 3 mM MgCl2 and 1 mM EDTA. Bovine alkaline phosphatase assays were carried out using one unit of purified enzyme in 50 mM potassium phosphate buffer (pH 7.4) containing 3 mM MgCl2 and 1 mM EDTA. Porcine esterase assays were carried out using one unit of purified enzyme in 50 mM potassium phosphate buffer (pH 7.4) containing 3 mM MgCl2 and 1 mM EDTA.” left out, “100%. […]” for “100%.”"}, "5-HT2A receptor [4]": {"target": "5-HT2A receptor (Homo sapiens, UniProt P28223)", "sequence (P28223 whole entry)": "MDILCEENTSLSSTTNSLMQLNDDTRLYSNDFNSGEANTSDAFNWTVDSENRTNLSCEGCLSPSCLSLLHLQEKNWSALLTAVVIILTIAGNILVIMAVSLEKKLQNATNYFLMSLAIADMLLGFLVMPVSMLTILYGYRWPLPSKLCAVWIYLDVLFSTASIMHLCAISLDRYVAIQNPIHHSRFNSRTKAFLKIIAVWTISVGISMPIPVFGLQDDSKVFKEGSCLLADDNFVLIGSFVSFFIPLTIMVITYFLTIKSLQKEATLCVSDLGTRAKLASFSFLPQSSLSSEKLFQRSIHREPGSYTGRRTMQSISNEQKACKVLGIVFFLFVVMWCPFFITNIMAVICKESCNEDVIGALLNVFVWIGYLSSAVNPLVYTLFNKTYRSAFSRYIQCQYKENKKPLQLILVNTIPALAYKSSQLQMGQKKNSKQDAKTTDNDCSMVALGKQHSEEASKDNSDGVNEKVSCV", "experiment": "[3H]ketanserin competition radioligand binding assay (SPA)", "details": "control ligands"}, "5-HT1A receptor": {"target": "T2, 5-HT1A receptor (Homo sapiens, UniProt P08908)", "T2 construct": "host or cells: CHO-K1 (co-expressing Ga15)", "T2 sequence (P08908 1-422)": "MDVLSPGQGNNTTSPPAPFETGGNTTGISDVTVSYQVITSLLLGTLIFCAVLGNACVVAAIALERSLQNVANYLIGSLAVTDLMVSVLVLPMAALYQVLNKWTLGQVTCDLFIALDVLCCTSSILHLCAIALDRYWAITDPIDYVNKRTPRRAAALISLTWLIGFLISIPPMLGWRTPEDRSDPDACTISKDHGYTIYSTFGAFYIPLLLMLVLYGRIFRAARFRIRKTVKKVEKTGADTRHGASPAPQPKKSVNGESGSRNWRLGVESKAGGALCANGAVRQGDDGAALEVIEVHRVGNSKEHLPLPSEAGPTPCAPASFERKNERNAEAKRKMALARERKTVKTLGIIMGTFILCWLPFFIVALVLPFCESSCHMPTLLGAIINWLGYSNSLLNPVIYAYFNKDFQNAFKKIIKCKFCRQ", "experiment": "cAMP-Glo assay in +5-HT1A / -5-HT1A CHO-K1 cells", "assay_type": "cell-based", "details": "forskolin-stimulated +5-HT1A vs -5-HT1A cells, increasing ligand"}, "[5]": {"details": "1 mg/kg oral of administered compound"}, "[6]": {"details": "3 mg/kg oral of administered compound"}, "[7]": {"details": "10 mg/kg oral of administered compound"}},
  "data": [
    {"smiles": "CN(C)CCc1c[nH]c2cccc(OC(=O)OCc3ccccc3)c12", "note": "[B(II), reference compound]", "values": [
      {"measurement": "Head Twitch Response (in words)", "setting": "5-HT2A receptor [1]", "value": "elicit head twitching"},
      {"measurement": "Plasma concentration of psilocin", "setting": "[2]; 1 mg/kg oral of administered compound, 0.25 h", "value": "19.7 ± 5.50", "unit": "ng/mL"},
      {"measurement": "Plasma concentration of psilocin", "setting": "[2]; 1 mg/kg oral of administered compound, 0.5 h", "value": "11.9 ± 2.03", "unit": "ng/mL"},
      {"measurement": "Plasma concentration of psilocin", "setting": "[2]; 1 mg/kg oral of administered compound, 1 h", "value": "4.63 ± 0.788", "unit": "ng/mL"},
      {"measurement": "Plasma concentration of psilocin", "setting": "[2]; 1 mg/kg oral of administered compound, 2 h", "value": "2.20 ± 0.850", "unit": "ng/mL"},
      {"measurement": "Plasma concentration of psilocin", "setting": "[2]; 1 mg/kg oral of administered compound, 4 h", "value": "2.05 ± 0.359", "unit": "ng/mL"},
      {"measurement": "Plasma concentration of psilocin", "setting": "[2]; 1 mg/kg oral of administered compound, 6 h", "value": "0.739 ± 0.288", "unit": "ng/mL"},
      {"measurement": "Plasma concentration of psilocin", "setting": "[2]; 1 mg/kg oral of administered compound, 8 h", "value": "0.453 ± 0.0460", "unit": "ng/mL"},
      {"measurement": "AUC0-tlast/Dose (plasma psilocin)", "setting": "[2]; [5]", "value": "21.0 ± 1.55", "unit": "kg·ng·h/mL/mg"},
      {"measurement": "Cmax/Dose (plasma psilocin)", "setting": "[2]; [5]", "value": "19.7 ± 5.50", "unit": "kg·ng/mL/mg"},
      {"measurement": "Plasma concentration of psilocin", "setting": "[2]; 3 mg/kg oral of administered compound, 0.25 h", "value": "55.6 ± 8.67", "unit": "ng/mL"},
      {"measurement": "Plasma concentration of psilocin", "setting": "[2]; 3 mg/kg oral of administered compound, 0.5 h", "value": "32.3 ± 4.98", "unit": "ng/mL"},
      {"measurement": "Plasma concentration of psilocin", "setting": "[2]; 3 mg/kg oral of administered compound, 1 h", "value": "9.29 ± 3.05", "unit": "ng/mL"},
      {"measurement": "Plasma concentration of psilocin", "setting": "[2]; 3 mg/kg oral of administered compound, 2 h", "value": "7.67 ± 0.921", "unit": "ng/mL"},
      {"measurement": "Plasma concentration of psilocin", "setting": "[2]; 3 mg/kg oral of administered compound, 4 h", "value": "6.76 ± 2.13", "unit": "ng/mL"},
      {"measurement": "Plasma concentration of psilocin", "setting": "[2]; 3 mg/kg oral of administered compound, 6 h", "value": "2.41 ± 0.845", "unit": "ng/mL"},
      {"measurement": "Plasma concentration of psilocin", "setting": "[2]; 3 mg/kg oral of administered compound, 8 h", "value": "0.722 ± 0.368", "unit": "ng/mL"},
      {"measurement": "AUC0-tlast/Dose (plasma psilocin)", "setting": "[2]; [6]", "value": "20.3 ± 2.78", "unit": "kg·ng·h/mL/mg"},
      {"measurement": "Cmax/Dose (plasma psilocin)", "setting": "[2]; [6]", "value": "18.5 ± 2.89", "unit": "kg·ng/mL/mg"},
      {"measurement": "Plasma concentration of psilocin", "setting": "[2]; 10 mg/kg oral of administered compound, 0.25 h", "value": "306 ± 34.6", "unit": "ng/mL"},
      {"measurement": "Plasma concentration of psilocin", "setting": "[2]; 10 mg/kg oral of administered compound, 0.5 h", "value": "125 ± 16.3", "unit": "ng/mL"},
      {"measurement": "Plasma concentration of psilocin", "setting": "[2]; 10 mg/kg oral of administered compound, 1 h", "value": "49.6 ± 10.5", "unit": "ng/mL"},
      {"measurement": "Plasma concentration of psilocin", "setting": "[2]; 10 mg/kg oral of administered compound, 2 h", "value": "20.7 ± 1.42", "unit": "ng/mL"},
      {"measurement": "Plasma concentration of psilocin", "setting": "[2]; 10 mg/kg oral of administered compound, 4 h", "value": "31.4 ± 6.34", "unit": "ng/mL"},
      {"measurement": "Plasma concentration of psilocin", "setting": "[2]; 10 mg/kg oral of administered compound, 6 h", "value": "11.5 ± 1.43", "unit": "ng/mL"},
      {"measurement": "Plasma concentration of psilocin", "setting": "[2]; 10 mg/kg oral of administered compound, 8 h", "value": "6.38 ± 2.98", "unit": "ng/mL"},
      {"measurement": "Plasma concentration of psilocin", "setting": "[2]; 10 mg/kg oral of administered compound, 24 h", "value": 0.104, "unit": "ng/mL"},
      {"measurement": "AUC0-tlast/Dose (plasma psilocin)", "setting": "[2]; [7]", "value": "28.2 ± 4.12", "unit": "kg·ng·h/mL/mg"},
      {"measurement": "Cmax/Dose (plasma psilocin)", "setting": "[2]; [7]", "value": "30.6 ± 3.46", "unit": "kg·ng/mL/mg"},
      {"measurement": "metabolic stability / conversion to psilocin (in words)", "setting": "in vitro; HLM", "value": "did not readily dissociate to psilocin under any conditions"},
      {"measurement": "metabolic stability / conversion to psilocin (in words)", "setting": "in vitro; HLS9", "value": "did not readily dissociate to psilocin under any conditions"},
      {"measurement": "metabolic stability / conversion to psilocin (in words)", "setting": "[3]", "value": "failed completely to dissociate"}
    ]},
    {"smiles": "CN(C)CCc1c[nH]c2cccc(O)c12", "note": "[psilocin]", "values": [
      {"measurement": "5-HT2A competition binding (in words)", "setting": "5-HT2A receptor [4]", "value": "positive control (binding)"},
      {"measurement": "cAMP level / 5-HT1A receptor modulation (in words)", "setting": "5-HT1A receptor", "value": "reduction in cAMP levels"}
    ]}
  ]
}
